Measurements taken from patent US20040101477A1, “Individualization of therapy with anesthetics” (Xanthus Life Sciences, Inc., priority 2002, published 2004).
Read-outs that look alike come from different tables or passages of the source. Marks after values point to notes of the source that are not given here.

Tests used:
[1] = test system: 1X-Ab; test: Competitive antigen ELISA, cross-reactivity of 1X-Ab; format: binding, rabbit; conditions: 0 = absence of inhibition or inhibition no higher than 40% at 5 × 10^−3 M
Protocol: (§1) Buffers and water without additives are filtered through millipore filters and kept for 1 week. BSA, antibodies, Tween™ 20 and horse radish peroxidase conjugates are added to these buffers and water just prior to use. Urine samples are usually collected 4 hours after drinking a cup of coffee (instant or brewed with approximately 100 mg of caffeine per cup) and stored at 80° C. The urine samples are diluted 10 times with sodium phosphate buffer (620 mosm, pH 7.50) and are subsequently diluted with water to give concentrations of AAMU and 1× no higher than 3×10^−6 M in the ELISA. All the pipettings are done with an eight-channel pipette, except those of the antibody and sample solutions. Starting with the last well, 100 μL of a carbonate buffer (100 mM, pH 9.6) containing 2.5 μg mL-^1 antibodies are added to each well. After 90 min. at room temperature, the wells are washed three times with […] of TPB: isotonic sodium phosphate buffer (310 mosm, pH 7.50) containing 0.05% Tween™ 20.
(§2) After the initial wash, unoccupied sites are blocked by incubation for 90 min. at room temperature with 100 μL TBP containing 3% BSA. The wells are washed four times with 100 μL TPB. […] The microplate is gently shaken with an orbital shaker at room temperature for 3-4 hours. The wells are washed three times with 100 μL TPB containing 1% BSA and three times with water containing 0.05% Tween™ 20. To the washed plate is added 150 μL of a substrate buffer composed of citric acid (25 mM) and sodium phosphate dibasic buffer (50 mM, pH 5.0) containing 0.06% hydrogen peroxide and 0.04% o-phenylenediamine hydrochloride.
(§3) Buffers and water without additives were filtered through millipore filters and kept for 1 week. BSA, antibodies, Tween™ 20 and horse radish peroxidase conjugates were added to these buffers and water just prior to use. Urine samples were usually collected 4 hours after drinking a cup of coffee (instant or brewed with approximately 100 mg of caffeine per cup) and stored at −80° C. They were diluted 10 times with sodium phosphate buffer (620 mosm, pH 7.50) and were subsequently diluted with water to give concentrations of AAMU and 1× no higher than 3×10^−6 M in the ELISA. All the pipettings were done with an eight-channel pipette, except those of the antibody and sample solutions. Starting with the last well, 100 μL of a carbonate buffer (100 mM, pH 9.6) containing 2.5 μg mL-^1 antibodies was pipetted. After 90 min. at room temperature, the wells were washed three times with 100 μL of TPB: isotonic sodium phosphate buffer (310 mosm, pH 7.50) containing 0.05% Tween™ 20.
(§4) After the initial wash, unoccupied sites were blocked by incubation for 90 min. at room temperature with 100 μL TBP containing 3% BSA. The wells were washed four times with 100 μL TPB. […] The microplate was gently shaken with an orbital shaker at room temperature for 3-4 hours. The wells were washed three times with 100 μL with TPB containing 1% BSA and three times with water containing 0.05% Tween™ 20. To the washed plate was added 150 μL of a substrate buffer composed of citric acid (25 mM) and sodium phosphate dibasic buffer (50 mM, pH 5.0) containing 0.06% hydrogen peroxide and 0.04% o-phenylenediamine hydrochloride. After 20 min. at room temperature with shaking, the reaction was stopped with 50 μL of 2.5 N HCl.
(§5) The cross reactivities of AAMU-Ab and 1×-Ab were tested using a wide variety of caffeine metabolites and structural analogs (Table 2 below). AAMU-Ab appeared highly specific for binding AAMU, while 1×-Ab appeared relatively specific for binding 1×.

[2] = test system: AAMU-Ab; test: Competitive antigen ELISA, cross-reactivity of AAMU-Ab; format: binding, rabbit; conditions: 0 = absence of inhibition or inhibition no higher than 40% at 5 × 10^−3 M
Protocol: as §1, §2, §3, §4, §5

[3] = test system: spermatogonia cells and bone marrow cells; conditions: rat, one-year exposure, 1 and 10 ppm, with nitrous oxide; cited from earlier work
[4] = humans; cited from earlier work
[5] = rat, 10 ppm, with nitrous oxide; cited from earlier work
[6] = cited from earlier work; for metabolized fraction of the absorbed anesthetic: in vivo
[7] = test system: Chinese hamster ovary cells; conditions: cited from earlier work
[8] = 37° C.; cited from earlier work
[9] = mouse, inhalation, 0.05%, 18 months; cited from earlier work
[10] = test system: human leukocyte culture; conditions: cited from earlier work
[11] = test system: cytochrome P-450; conditions: microsomal preparations; cited from earlier work
[12] = subanesthetic and/or anesthetic concentrations; cited from earlier work
[13] = test system: Chinese hamster lung fibroblast; conditions: cited from earlier work
[14] = cited from earlier work

CC(=O)Nc1c(N)[nH]c(=O)[nH]c1=O [5-Acetamino-6-amino-uracil]
% Cross-Reaction 1X-Ab [1]: 0% | % Cross-Reaction AAMU-Ab [2]: 0.6%

CC(=O)Nc1c(N)n(C)c(=O)n(C)c1=O [5-Acetamino-6-amino-1,3-dimethyluracil]
% Cross-Reaction 1X-Ab [1]: 0% | % Cross-Reaction AAMU-Ab [2]: 0%

FC(F)(F)C(Cl)Br (racemic) [Halothane, 2-bromo-2-chloro-1,1,1-trifluoro-ethane]
mutagenesis, chromosomal damage [3]: chromosomal damage to spermatogonia cells and bone marrow cells | minimum alveolar concentration (MAC) [4]: 0.64% | fertility [5]: decreased fertility | metabolized fraction of the absorbed anesthetic [6]: 25-45% | mutagenesis, sister chromatid exchange [7]: Negative | blood/gas coefficient [8]: 2.5 | olive oil/water coefficient [8]: 220 | carcinogenicity [9]: no evidence of anesthetic-related carcinogenicity | mutagenesis, human leukocyte culture assay [10]: Negative | concentration that destroys cytochrome P-450 [11]: 18800 µM | teratogenic effects [12]: teratogenic, embryotoxic, and fetotoxic | mutagenesis, Chinese hamster lung fibroblast assay [13]: Negative

O=c1[nH]c(=O)c2[nH]c(=O)[nH]c2[nH]1 [Uric acid]
% Cross-Reaction 1X-Ab [1]: 0% | % Cross-Reaction AAMU-Ab [2]: 0%

FC(F)OC(F)(F)C(F)Cl (stereo not drawn) [Enflurane]
metabolized fraction of the absorbed anesthetic [6]: 2-8% | concentration that destroys cytochrome P-450 [11]: 13300 µM

Cc1nc2[nH]c(=O)[nH]c(=O)c2[nH]1 [8-Methyl Xanthine]
% Cross-Reaction 1X-Ab [1]: 0% | % Cross-Reaction AAMU-Ab [2]: 0%

O=c1[nH]cnc2nc[nH]c12 [Hypoxanthine]
% Cross-Reaction 1X-Ab [1]: 0% | % Cross-Reaction AAMU-Ab [2]: 0%

Nc1ccc(S(=O)(=O)c2ccc(N)cc2)cc1 [dapsone]
adverse reactions ([14]; fast acetylators): 17% | adverse reactions ([14]; slow acetylators): 46%

Cn1cnc2c1c(=O)[nH]c(=O)n2C [3,7-Dimethyl Xanthine (Theobromine), 3,7-Dimethyl Xanthine]
% Cross-Reaction 1X-Ab [1]: 0% | % Cross-Reaction AAMU-Ab [2]: 0%

Cn1c(=O)[nH]c2[nH]c(=O)[nH]c2c1=O [1-Methyluric acid]
% Cross-Reaction 1X-Ab [1]: 11% | % Cross-Reaction AAMU-Ab [2]: 0%

COC(F)(F)C(Cl)Cl [methoxyflurane]
concentration that destroys cytochrome P-450 [11]: 5800 µM

Cn1cnc2[nH]c(=O)[nH]c(=O)c21 [7-Methyl Xanthine]
% Cross-Reaction 1X-Ab [1]: 0% | % Cross-Reaction AAMU-Ab [2]: 0%

Cn1c(=O)[nH]c2[nH]c(=O)n(C)c2c1=O [1,7-Dimethyluric acid]
% Cross-Reaction 1X-Ab [1]: 0% | % Cross-Reaction AAMU-Ab [2]: 0%

O=c1cc[nH]c(=O)[nH]1 [Uracil]
% Cross-Reaction 1X-Ab [1]: 0% | % Cross-Reaction AAMU-Ab [2]: 0%

Cn1c(=O)c2[nH]cnc2n(C)c1=O [1,3-Dimethyl Xanthine (Theophylline), 1,3-Dimethyl Xanthine]
% Cross-Reaction 1X-Ab [1]: 0.2% | % Cross-Reaction AAMU-Ab [2]: 0%

Cn1c(=O)[nH]c2nc[nH]c2c1=O [1-Methyl Xanthine (1X), 1-Methyl Xanthine]
% Cross-Reaction 1X-Ab [1]: 100% | % Cross-Reaction AAMU-Ab [2]: 0%

CC(=O)Nc1c(N)n(C)c(=O)[nH]c1=O [5-Acetamino-6-amino-1-methyluracil]
% Cross-Reaction 1X-Ab [1]: 0% | % Cross-Reaction AAMU-Ab [2]: 100%

Nc1nc2nc[nH]c2c(=O)[nH]1 [Guanine]
% Cross-Reaction 1X-Ab [1]: 0% | % Cross-Reaction AAMU-Ab [2]: 0%

O=c1[nH]c(=O)c2[nH]cnc2[nH]1 [Xanthine]
% Cross-Reaction 1X-Ab [1]: 0% | % Cross-Reaction AAMU-Ab [2]: 0^a %

Cn1c(=O)[nH]c(=O)c2[nH]cnc21 [3-Methyl Xanthine]
% Cross-Reaction 1X-Ab [1]: 0% | % Cross-Reaction AAMU-Ab [2]: 0%

Cn1c(=O)c2c(ncn2C)n(C)c1=O [1,3,7-Trimethyl Xanthine (Caffeine), 1,3,7-Trimethyl Xanthine]
% Cross-Reaction 1X-Ab [1]: 0% | % Cross-Reaction AAMU-Ab [2]: 0%

Cn1c(=O)[nH]c2ncn(C)c2c1=O [1,7-Dimethyl Xanthine (Paraxanthine), 1,7-Dimethyl Xanthine]
% Cross-Reaction 1X-Ab [1]: 0.5% | % Cross-Reaction AAMU-Ab [2]: 0%

FC(F)OC(Cl)C(F)(F)F (stereo not drawn) [isoflurane]
metabolism, fraction of the absorbed anesthetic ([6]; estimated): approximately 0.2%
